target: T1, TNKS1 (Homo sapiens, UniProt O95271); assay: Modified TNKS1 Assay 2 (auto-parsylation, [3H]-NAD+ SPA); assay type: biochemical; conditions: 6 nM TNKS1, 96 well
T1 sequence (O95271 1-1327): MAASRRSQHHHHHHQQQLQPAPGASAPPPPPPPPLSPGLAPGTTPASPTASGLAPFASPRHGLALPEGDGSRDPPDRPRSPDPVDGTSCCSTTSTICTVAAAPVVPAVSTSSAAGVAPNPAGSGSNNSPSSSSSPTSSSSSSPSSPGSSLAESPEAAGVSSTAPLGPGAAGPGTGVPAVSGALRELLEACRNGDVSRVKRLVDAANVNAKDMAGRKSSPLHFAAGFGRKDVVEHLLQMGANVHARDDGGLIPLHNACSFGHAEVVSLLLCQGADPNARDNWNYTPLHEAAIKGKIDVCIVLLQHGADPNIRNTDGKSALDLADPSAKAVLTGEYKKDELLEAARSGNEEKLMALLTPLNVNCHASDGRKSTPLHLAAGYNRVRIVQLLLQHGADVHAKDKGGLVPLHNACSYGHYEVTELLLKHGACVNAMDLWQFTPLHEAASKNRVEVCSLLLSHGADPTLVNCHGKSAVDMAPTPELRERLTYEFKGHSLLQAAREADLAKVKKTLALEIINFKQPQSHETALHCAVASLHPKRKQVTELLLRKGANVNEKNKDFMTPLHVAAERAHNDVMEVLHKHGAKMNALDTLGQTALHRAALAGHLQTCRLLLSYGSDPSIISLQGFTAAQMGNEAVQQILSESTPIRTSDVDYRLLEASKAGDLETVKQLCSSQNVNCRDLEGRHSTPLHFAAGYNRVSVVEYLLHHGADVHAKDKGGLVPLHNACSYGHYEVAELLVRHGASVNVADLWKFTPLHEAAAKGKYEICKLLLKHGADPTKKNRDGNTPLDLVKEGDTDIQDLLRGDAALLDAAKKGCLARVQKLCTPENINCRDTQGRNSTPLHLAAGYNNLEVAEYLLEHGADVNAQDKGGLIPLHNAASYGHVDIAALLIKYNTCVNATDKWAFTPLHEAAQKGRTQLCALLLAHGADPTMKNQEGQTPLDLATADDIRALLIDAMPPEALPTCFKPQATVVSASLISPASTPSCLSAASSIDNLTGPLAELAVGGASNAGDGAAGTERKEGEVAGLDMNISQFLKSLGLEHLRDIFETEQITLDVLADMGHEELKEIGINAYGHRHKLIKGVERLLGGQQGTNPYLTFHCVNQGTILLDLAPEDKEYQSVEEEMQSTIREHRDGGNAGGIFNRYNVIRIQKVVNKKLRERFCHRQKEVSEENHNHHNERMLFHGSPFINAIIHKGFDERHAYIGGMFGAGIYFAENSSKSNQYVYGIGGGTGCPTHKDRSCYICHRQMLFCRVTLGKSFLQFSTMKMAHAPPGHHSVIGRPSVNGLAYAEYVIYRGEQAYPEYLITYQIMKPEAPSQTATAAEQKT

Row | Compound | IC50
1 | O=C(Nc1ccc(NC(=O)c2nc[nH]c2C(=O)NC(CO)CO)cc1)c1ccccc1Cl [Example 157, N^4-{4-[(2-chlorobenzoyl)amino]phenyl}-N^5-(1,3-dihydroxypropan-2-yl)-1H-imidazole-4,5-dicarboxamide] | 1200 nM
2 | CNC(=O)c1nc[nH]c1C(=O)Nc1ccc(NC(=O)c2cc(OCCN3CCN(C)CC3)ccc2Cl)cc1 [Example 124, N^5-[4-({2-chloro-5-[2-(4-methylpiperazin-1-yl)ethoxy]benzoyl}amino)phenyl]-N^4-methyl-1H-imidazole-4,5-dicarboxamide] | > 10000 nM
3 | CNC(=O)c1nc[nH]c1C(=O)Nc1ccc(NC(=O)c2cnccc2Cl)cc1 [Example 254, N^5-(4-{[(4-chloropyridin-3-yl)carbonyl]amino}phenyl)-N^4-methyl-1H-imidazole-4,5-dicarboxamide] | 570 nM
4 | CN1CCN(CCNC(=O)c2[nH]cnc2C(=O)Nc2ccc(NC(=O)c3ccccc3Cl)cc2)CC1 [Example 160, N^4-{4-[(2-chlorobenzoyl)amino]phenyl}-N^5-[2-(4-methylpiperazin-1-yl)ethyl]-1H-imidazole-4,5-dicarboxamide] | 80 nM
5 | CNC(=O)c1nc[nH]c1C(=O)Nc1ccc(NC(=O)c2ccc(OC(F)(F)F)cc2F)cc1 [Example 253, N^5-(4-{[2-fluoro-4-(trifluoromethoxy)benzoyl]amino}phenyl)-N^4-methyl-1H-imidazole-4,5-dicarboxamide] | > 10000 nM

The next lines start with the values.

Row | IC50 | Compound
6 | 110 nM | CC(C)CNC(=O)c1[nH]cnc1C(=O)Nc1ccc(NC(=O)c2ccc(F)cc2Cl)cc1 [Example 147, N^4-{4-[(2-chloro-4-fluorobenzoyl)amino]phenyl}-N^5-isobutyl-1H-imidazole-4,5-dicarboxamide]
7 | 320 nM | CNC(=O)c1nc[nH]c1C(=O)Nc1ccc(NC(=O)c2ccc(F)cc2Cl)c(C)c1 [Example 5, N^5-{4-[(2-chloro-4-fluorobenzoyl)amino]-3-methylphenyl}-N^4-methyl-1H-imidazole-4,5-dicarboxamide]
8 | 150 nM | CNC(=O)c1ncoc1C(=O)Nc1ccc(NC(=O)c2ccc(F)cc2Cl)cc1 [Example 11, N^5-{4-[(2-chloro-4-fluorobenzoyl)amino]phenyl}-N^4-methyl-1,3-oxazole-4,5-dicarboxamide]

Reference: US9884063B2, “Amido-substituted azole compounds” (Bayer Pharma Aktiengesellschaft, priority 2014, dated 2018)
